Source: patent publication US8906908B2, “Hydroxybupropion analogues for treating drug dependence” (priority 2010, dated 2014)
Read-outs that look alike come from different tables or passages of the source.

What was measured:
α3β4*-nAChR = assay: 86Rb+ efflux nAChR functional assay, SH-SY5Y cells; format: cell-based, human
Excerpt: (§1) Cell Lines and Culture: Human embryonic kidney (HEK-293) cells stably expressing human DAT, NET or SERT were maintained as previously described in Eshleman, A. J.; Carmolli, M.; Cumbay, M.; Martens, C. R.; Neve, K. A.; Janowsky, A., J. Pharmacol. Exp. Ther. 1999, 289, (2), 877-885. Use was made of several human cell lines that naturally or heterologously express specific, functional, human nAChR subtypes. Cells of the TE671/RD line naturally expresses muscle-type nAChR (a1β1γδ- or α1*-nAChR), and SH-SY5Y neuroblastoma cells naturally expresses autonomic α3β4*-nAChRs (containing α3, β4, probably α5, and sometimes β2 subunits). Different clones of SH-EP1 epithelial cell lines have been engineered to heterologously express either α4β2-nAChR, which are thought to be the most abundant, high affinity nicotine-binding nAChR in mammalian brain, or α4β4-nAChR, another possible brain nAChR subtype (SH-EP1-hα4β2 or α4β4 cells, respectively). These cells were maintained as low passage number (1-26 from our frozen stocks) cultures to ensure stable expression of native or heterologously-expressed nAChR as previously described (see Lukas, R. J.; Fryer, J. D.; Eaton, J. B.; L., G. C., Some methods for studies of nicotinic acetylcholine receptor pharmacology, in Nicotinic receptors and the Nervous System, Levine, E. D., Ed. CRC Press: Boca Raton, 2002; pp 3-27, incorporated herein by reference in its entirety). Cells were passaged once weekly by splitting just-confluent cultures 1/300 (TE671/RD), 1/5 (SH-SY5Y), or 1/20 (transfected SH-EP1) in serum-supplemented medium to maintain log-phase growth.
After cells had adhered (generally overnight, but no sooner than 4 h later), the medium was removed and replaced with 250 μL per well of complete medium supplemented with ˜350,000 cpm of ^86Rb^+ (PerkinElmer Life and Analytical Sciences, Boston, Mass.) and counted at 40% efficiency using Cerenkov counting (TriCarb 1900 liquid scintillation analyzer[…]; PerkinElmer Life Sciences).
After at least 4 h and typically overnight, ^86Rb^+ efflux was measured using the “flip-plate” technique. See Lukas, R. J.; Fryer, J. D.; Eaton, J. B.; L., G. C., Some methods for studies of nicotinic acetylcholine receptor pharmacology, in Nicotinic receptors and the Nervous System, Levine, E. D., Ed. CRC Press: Boca Raton, 2002; pp 3-27, incorporated herein by reference in its entirety). Briefly, after aspiration of the bulk of ^86Rb^+ loading medium from each well of the “cell plate,” each well containing cells was rinsed 3× with 2 mL of fresh ^86Rb^+ efflux buffer (130 mM NaCl, 5.4 mM KCl, 2 mM CaCl2, 5 mM glucose, 50 mM HEPES, pH 7.4) to remove extracellular ^86Rb^+. Following removal of residual rinse buffer by aspiration, the flip-plate technique was used again to simultaneously introduce 1.5 mL of fresh efflux buffer containing drugs of choice at indicated final concentrations from a 24-well “efflux/drug plate” into the wells of the cell plate. After a 5 min incubation, the solution was “flipped” back into the efflux/drug plate, and any remaining buffer in the cell plate was removed by aspiration. Cells remaining in the cell plate were lysed and suspended by addition of 1.5 mL of 0.1 M NaOH, 0.1% sodium dodecyl sulfate to each well.
Similarly, the sum of ^86Rb^+ in cell plates and efflux/drug plates also determined the efficiency of ^86Rb^+ loading (the percentage of applied ^86Rb^+ actually loaded into cells).
Specific efflux was then taken as the difference in control samples between total and non-specific ^86Rb^+ efflux. Any intrinsic agonist activity of test drugs was ascertained using samples containing test drug only at different concentrations and was normalized, after subtraction of non-specific efflux, to specific efflux in test drug-free, control samples.

NE transporters [h(NET)] = target: T1, NE transporters [h(NET)] (Homo sapiens, UniProt P23975); assay: Inhibition of [3H]norepinephrine uptake into HEK293 cells stably expressing hNET; format: cell-based; details: for selectivity for inhibition of NE over DA uptake: ratio of uptake IC50 values
T1 construct: expressed in transfected cells; host or cells: HEK-293
Excerpt: as §1
See, for example, Damaj, M. I.; Carroll, F. I.; Eaton, J. B.; Navarro, H. A.; Blough, B. E.; Mirza, S.; Lukas, R. J.; Martin, B. R., Mol. Pharmacol. 2004, 66, (3), 675-682 and Eshleman, A. J.; Carmolli, M.; Cumbay, M.; Martens, C. R.; Neve, K. A.; Janowsky, A., J. Pharmacol. Exp. Ther. 1999, 289, (2), 877-885, both incorporated by reference herein in their entireties.

[1] = HEK293-hNET, mean ± standard error of three independent experiments, read-out: monoamine uptake inhibition IC50 [3H]NE

T1 sequence (P23975 whole entry): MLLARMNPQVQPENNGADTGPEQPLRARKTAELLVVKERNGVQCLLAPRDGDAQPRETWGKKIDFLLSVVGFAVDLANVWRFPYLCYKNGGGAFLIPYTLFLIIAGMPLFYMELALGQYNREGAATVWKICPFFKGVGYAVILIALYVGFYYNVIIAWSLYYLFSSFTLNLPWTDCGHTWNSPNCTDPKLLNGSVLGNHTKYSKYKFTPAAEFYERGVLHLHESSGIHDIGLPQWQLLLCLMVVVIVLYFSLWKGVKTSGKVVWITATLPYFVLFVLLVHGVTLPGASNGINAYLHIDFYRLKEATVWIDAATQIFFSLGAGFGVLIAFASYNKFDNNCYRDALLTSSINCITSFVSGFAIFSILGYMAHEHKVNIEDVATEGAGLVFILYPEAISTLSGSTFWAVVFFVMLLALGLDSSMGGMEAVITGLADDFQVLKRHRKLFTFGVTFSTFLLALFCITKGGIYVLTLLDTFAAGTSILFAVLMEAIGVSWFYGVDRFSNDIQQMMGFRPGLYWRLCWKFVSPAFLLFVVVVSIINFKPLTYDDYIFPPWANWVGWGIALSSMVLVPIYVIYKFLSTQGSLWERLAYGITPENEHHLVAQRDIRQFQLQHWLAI

Structure (SMILES) | IC50 (NE transporters [h(NET)]; [1]) | also measured
CC1NC(C)(C)COC1(O)c1ccc(Cl)c(Cl)c1 (racemic) [Compound 4n, 2-(3,4-Dichlorophenyl)-3,5,5-trimethylmorpholin-2-ol] |  | selectivity for α3β4*- over α4β2-nAChR (α3β4*-nAChR): ~8 fold; IC50 (NE transporters [h(NET)]): 114 nM; selectivity for inhibition of NE uptake over α3β4*-nAChR function (NE transporters [h(NET)]): ~23 fold
CC1NC(C)(C)COC1(O)c1cc(Cl)cc(Cl)c1 (racemic) [Compound 4p, 2-(3,5-Dichlorophenyl)-3,5,5-trimethylmorpholin-2-ol] | 2440 ± 730 nM | selectivity for inhibition of NE uptake over α3β4*-nAChR function (NE transporters [h(NET)]): 1.6 fold
C[C@@H]1NC(C)(C)CO[C@@]1(O)c1ccccc1 [Compound 4b, (2S,3S)-2-Phenyl-3,5,5-trimethylmorpholin-2-ol] | 550 ± 90 nM | 
C[C@@H]1NC(C)(C)CO[C@@]1(O)c1cccc(F)c1 [Compound 4c, (2S,3S)-2-(3-Fluorophenyl)-3,5,5-trimethylmorpholin-2-ol] | 740 ± 150 nM | 
C[C@@H]1NC(C)(C)CO[C@@]1(O)c1cccc(Br)c1 [Compound 4d, (2S,3S)-2-(3-Bromophenyl)-3,5,5-trimethylmorpholin-2-ol] | 920 ± 300 nM | selectivity for inhibition of NE over DA uptake (NE transporters [h(NET)]): ~3.6 fold
Cc1cccc([C@]2(O)OCC(C)(C)N[C@H]2C)c1 [Compound 4e, (2S,3S)-2-(m-Tolyl)-3,5,5-trimethylmorpholin-2-ol] | 1130 ± 20 nM | 
COc1cccc([C@]2(O)OCC(C)(C)N[C@H]2C)c1 [Compound 4f, (2S,3S)-2-(3-Methoxyphenyl)-3,5,5-trimethylmorpholin-2-ol] | 3000 ± 900 nM | selectivity for inhibition of NE over DA uptake (NE transporters [h(NET)]): 5 fold
C[C@@H]1NC(C)(C)CO[C@@]1(O)c1cccc([N+](=O)[O-])c1 [Compound 4g, (2S,3S)-2-(3-Nitrophenyl)-3,5,5-trimethylmorpholin-2-ol] | 1210 ± 340 nM | selectivity for inhibition of NE over DA uptake (NE transporters [h(NET)]): 10 fold
C[C@@H]1NC(C)(C)CO[C@@]1(O)c1ccc(F)cc1 [Compound 4h, (2S,3S)-2-(4-Fluorophenyl)-3,5,5-trimethylmorpholin-2-ol] | 3800 ± 600 nM | 
C[C@@H]1NC(C)(C)CO[C@@]1(O)c1ccc(Cl)cc1 [Compound 4i, (2S,3S)-2-(4-Chlorophenyl)-3,5,5-trimethylmorpholin-2-ol] | 830 ± 90 nM | 
Cc1ccc([C@]2(O)OCC(C)(C)N[C@H]2C)cc1 [Compound 4j, (2S,3S)-3,5,5-Trimethyl-2-(4-methylphenyl)morpholin-2-ol] | 1680 ± 330 nM | 
COc1ccc([C@]2(O)OCC(C)(C)N[C@H]2C)cc1 [Compound 4k, (2S,3S)-2-(4-Methoxyphenyl)-3,5,5-trimethylmorpholin-2-ol] | > 10000 nM | 
C[C@@H]1NC(C)(C)CO[C@@]1(O)c1ccc(-c2ccccc2)cc1 [Compound 4l, (2S,3S)-2-Biphenyl-4-yl-3,5,5-trimethylmorpholin-2-ol] | 10300 nM | 
C[C@@H]1NC(C)(C)CO[C@@]1(O)c1ccc(F)c(F)c1 [Compound 4m, (2S,3S)-2-(3,4-Difluorophenyl)-3,5,5-trimethylmorpholin-2-ol] | 740 ± 110 nM | 
C[C@@H]1NC(C)(C)CO[C@@]1(O)c1cc(F)cc(F)c1 [Compound 4o, (2S,3S)-2-(3,5-Difluorophenyl)-3,5,5-trimethylmorpholin-2-ol] | 151 ± 43 nM | selectivity for inhibition of NE uptake over α4β2-nAChR function (NE transporters [h(NET)]): 42 fold
C[C@@H]1NC(C)(C)CO[C@@]1(O)c1cccc2ccccc12 [Compound 4q, (2S,3S)-2-(Naphthalen-1-yl)-3,5,5-trimethylmorpholin-2-ol] | 411 ± 53 nM | selectivity for inhibition of NE over DA uptake (NE transporters [h(NET)]): 24 fold
C[C@@H]1NC(C)(C)CO[C@@]1(O)c1ccc2ccccc2c1 [Compound 4r, (2S,3S)-2-(Naphthalen-2-yl)-3,5,5-trimethylmorpholin-2-ol] | 1570 ± 430 nM | selectivity for inhibition of NE uptake over α3β4*-nAChR function (NE transporters [h(NET)]): 1.3 fold; selectivity for inhibition of NE uptake over α4β2-nAChR function (NE transporters [h(NET)]): ~4 fold
CC[C@@H]1NC(C)(C)CO[C@@]1(O)c1cccc(Cl)c1 [Compound 4s, (2S,3S)-2-(3-Chlorophenyl)-3-ethyl-5,5-dimethylmorpholin-2-ol] | 43 nM | selectivity for inhibition of NE over DA uptake (NE transporters [h(NET)]): 5 fold
C[C@@H]1N(C)C(C)(C)CO[C@@]1(O)c1cccc(Cl)c1 [Compound 4u, (2S,3S)-2-(3-Chlorophenyl)-3,4,5,5-tetramethylmorpholin-2-ol] | 415 ± 9 nM | 
C[C@@H]1N(C)C(C)(C)CO[C@@]1(O)c1ccc(Cl)cc1 [Compound 4v, (2S,3S)-2-(4-Chlorophenyl)-3,4,5,5-tetramethylmorpholin-2-ol] | 527 ± 104 nM | 
